Test results: patent publication US20220402862A1 (Intellia Therapeutics, Inc., priority 2019, published 2022)

Legend:
[1] = Dynamic light scattering of LNPs: Z-average diameter, number average diameter, PDI; format: physicochemical; settings: LNP, sg:mRNA 1:1, N/P about 6, 50/9/38/3; Table 2, Experiments 2-20
How it was run: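 Values reported are the Z-average (intensity-weighted mean size), the number-average diameter and the PDI (spread of sizes, 0 = fully uniform). All three came from dynamic light scattering of LNP preparations after dilution in PBS.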

[2] = pKa measurement of unformulated amine lipid (fluorescence, method of Jayaraman et al.); format: physicochemical; settings: 100 μM in 0.1 M phosphate buffer, pH 2.0-12.0
Description: The pKa of each amine lipid was determined according to the method in Jayaraman, et al. (Angewandte Chemie, 2012) with the following adaptations. […] Lipid was diluted to 100 μM in 0.1 M phosphate buffer (Boston Bioproducts) where the pH ranged from 2.0-12.0. Fluorescence intensity was measured using excitation and emission wavelengths of 321 nm and 448 nm.

Transthyretin (TTR) = experiment: Serum TTR ELISA in mice after LNP dosing; format: in vivo, CD-1 female mice; settings: guide G282 experiments; for Serum TTR % TSS: mouse serum TTR relative to TSS control; for Serum TTR: mouse serum, ELISA
How it was run: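 Serum mouse TTR was quantified by ELISA at 10,000-fold dilution for 0.1 mg/kg and 10,000/2,500-fold for 0.3 mg/kg. Samples came from female CD-1 mice (6–10 weeks) killed 6 or 7 days after a single intravenous LNP dose, usually 0.1 mg/kg.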

[3] = RNA encapsulation efficiency of LNPs (Ribogreen fluorescence assay); format: physicochemical; settings: LNP, sg:mRNA 1:1, N/P about 6, amine lipid/DSPC/cholesterol/PEG-2k-DMG 50/9/38/3; Table 2, Experiments 2-20
How it was run: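 Encapsulation efficiency is (Total RNA − Free RNA)/Total RNA. Free RNA was quantified by RiboGreen fluorescence (488/525 nm, ~10 min, RT, dark) in plain TE buffer; total RNA was quantified after LNP lysis with 0.2% Triton X-100, both against RNA standard curves.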

SMILES | Number mean (nm) [1] [nm] | PDI [1] | Z-avg (nm) [1] [nm] | pKa [2] | Serum TTR % TSS (Transthyretin (TTR)) [%] | Serum TTR (Transthyretin (TTR)) [µg/mL] | Encapsulation (%) [3] [%]
CCCCCCCCCCOC(=O)CCCCCCCC(=O)OCC(COC(=O)CCC(OCCCCCCCC)OCCCCCCCC)COC(=O)OCCC1CCCN1C (stereo not shown) [Compound 74, 1-(3-((4,4-bis(octyloxy)butanoyl)oxy)-2-((((2-(1-methylpyrrolidin-2-yl)ethoxy)carbonyl)oxy)methyl)propyl) 9-decyl nonanedioate] | 87.14 | 0.021 | 105.7 | 6.39 | 44 | 406 | 99
CCCCCCCCCCOC(=O)CCCCCCCC(=O)OCC(COC(=O)CCCN(CC)CC)COC(=O)CCC(OCCCCCCCC)OCCCCCCCC (stereo not shown) [Compound 75, 1-(3-((4,4-bis(octyloxy)butanoyl)oxy)-2-(((4-(diethylamino)butanoyl)oxy)methyl)propyl) 9-decyl nonanedioate] | 92.74 | 0.020 | 110.9 | 6.45 | 68 | 623 | 98
CCCCCCCCCCOC(=O)CCCCCCCC(=O)OCC(COC(=O)CCCCCC(=O)OC(CCCCCCCC)CCCCCCCC)COC(=O)OCCCN(CC)CC (stereo not shown) [Compound 76, 1-decyl 9-(3-(((3-(diethylamino)propoxy)carbonyl)oxy)-2-(((7-(heptadecan-9-yloxy)-7-oxoheptanoyl)oxy)methyl)propyl) nonanedioate] | 80.2 | 0.097 | 111.8 | 6.17 | 81 | 735 | 99
CCCCCCCCCCOC(=O)CCCCCCCC(=O)OCC(COC(=O)CCCC(=O)OC(CCCCCCCC)CCCCCCCC)COC(=O)OCCCN(CC)CC (stereo not shown) [Compound 77, 1-decyl 9-(3-(((3-(diethylamino)propoxy)carbonyl)oxy)-2-(((5-(heptadecan-9-yloxy)-5-oxopentanoyl)oxy)methyl)propyl) nonanedioate] | 85.4 | 0.006 | 101.8 | 6.16 | 53 | 478 | 99
CCCCCCCCCCOC(=O)CCCCCCCC(=O)OCC(COC(=O)CCC(OCCCCCCCCC)OCCCCCCCCC)COC(=O)OCCCN(CC)CC (stereo not shown) [Compound 79, 1-(3-((4,4-bis(nonyloxy)butanoyl)oxy)-2-((((3-(diethylamino)propoxy)carbonyl)oxy)methyl)propyl) 9-decyl nonanedioate] | 83.64 | 0.019 | 99.24 | 6.13 | 39 | 351 | 99
CCCCCCCCCCOC(=O)CCCCCCCC(=O)OCC(COC(=O)CCCCCC(=O)OC(CCCCCCCC)CCCCCCCC)COC(=O)OCCC1CCCN1C (stereo not shown) [Compound 80, 1-decyl 9-(3-((7-(heptadecan-9-yloxy)-7-oxoheptanoyl)oxy)-2-((((2-(1-methylpyrrolidin-2-yl)ethoxy)carbonyl)oxy)methyl)propyl) nonanedioate] | 87.3 | 0.016 | 105.8 | 6.21 | 116 | 873 | 98
CCCCCCCCCCOC(=O)CCCCCCCC(=O)OCC(COC(=O)CCCCCC(=O)OC(CCCCCCCC)CCCCCCCC)COC(=O)CCCN(C)C (stereo not shown) [Compound 82, 1-decyl 9-(3-((4-(dimethylamino)butanoyl)oxy)-2-(((7-(heptadecan-9-yloxy)-7-oxoheptanoyl)oxy)methyl)propyl) nonanedioate] | 94.01 | 0.038 | 117.5 | 6.31 | 126 | 953 | 98
CCCCCC/C=C\COC(=O)CCCCCCCC(=O)OCC(COC(=O)CCC(OCCCCCCCCC)OCCCCCCCCC)COC(=O)OCCCN(CC)CC (stereo not shown) [Compound 83, (Z)-1-(3-((4,4-bis(nonyloxy)butanoyl)oxy)-2-((((3-(diethylamino)propoxy)carbonyl)oxy)methyl)propyl) 9-(non-2-en-1-yl) nonanedioate] | 74.41 | 0.009 | 89.55 | 6.16 | 54 | 488 | 99
CCCCCC/C=C\COC(=O)CCCCCCCC(=O)OCC(COC(=O)CCC(OCCCCCCC)OCCCCCCC)COC(=O)OCCCN(CC)CC (stereo not shown) [Compound 84, (Z)-1-(3-((4,4-bis(heptyloxy)butanoyl)oxy)-2-((((3-(diethylamino)propoxy)carbonyl)oxy)methyl)propyl) 9-(non-2-en-1-yl) nonanedioate] | 86.08 | 0.086 | 114.2 | 6.16 | 71 | 648 | 95
CCCCCC/C=C\COC(=O)CCCCCCCC(=O)OCC(COC(=O)CCCCCC(=O)OC(CCCCCCCC)CCCCCCCC)COC(=O)OCCCN(CC)CC (stereo not shown) [Compound 85, (Z)-1-(3-(((3-(diethylamino)propoxy)carbonyl)oxy)-2-(((7-(heptadecan-9-yloxy)-7-oxoheptanoyl)oxy)methyl)propyl) 9-(non-2-en-1-yl) nonanedioate] | 81.21 | 0.006 | 97.86 | 6.16 | 84 | 762 | 99
CCCCCC/C=C\COC(=O)CCCCCCCC(=O)OCC(COC(=O)CCCC(=O)OC(CCCCCCCC)CCCCCCCC)COC(=O)OCCCN(CC)CC (stereo not shown) [Compound 86, (Z)-1-(3-(((3-(diethylamino)propoxy)carbonyl)oxy)-2-(((5-(heptadecan-9-yloxy)-5-oxopentanoyl)oxy)methyl)propyl) 9-(non-2-en-1-yl) nonanedioate] | 81.23 | 0.016 | 99.01 | 6.16 | 64 | 582 | 98
CCCCCCCCCCOC(=O)CCCCCCCC(=O)OCC(COC(=O)CCCC(=O)OC(CCCCCCCC)CCCCCCCC)COC(=O)OCCC1CCCN1C (stereo not shown) [Compound 87, 1-decyl 9-(3-((5-(heptadecan-9-yloxy)-5-oxopentanoyl)oxy)-2-((((2-(1-methylpyrrolidin-2-yl)ethoxy)carbonyl)oxy)methyl)propyl) nonanedioate] | 81.57 | 0.006 | 98.47 | 6.52 | 68 | 511 | 98
CCCCCCCCCCOC(=O)CCCCCCCC(=O)OCC(COC(=O)CCCC(=O)OC(CCCCCCCC)CCCCCCCC)COC(=O)NCCN(CC)CC (stereo not shown) [Compound 88, 1-decyl 9-(3-(((2-(diethylamino)ethyl)carbamoyl)oxy)-2-(((5-(heptadecan-9-yloxy)-5-oxopentanoyl)oxy)methyl)propyl) nonanedioate] | 99.51 | 0.011 | 117.1 | 6.84 | 77 | 582 | 98
